Tested on: bovine full-depth cartilage explants
Assay: Ex vivo bovine cartilage explant model
Assay type: cell-based
Details: serum-free culture, biomarkers (P2NP, C2M, AGNx1, AGNx2) in supernatant at day 7, 14 and 21, FIG. 1 (C2M) and FIG. 2 (AGNx2), oncostatin M + TNF-alpha
Description: The method of this assay is descrived in the following literature (Rheumatol Int. 2013 February; 33(2):401-11).
Full-depth cartilage explants were harvested from the knee of either back legs of a cow less than 24 month old. All the FDC explants are divided into different treatment group according to the explants weight and metabolic activity (viability) measured by Alamar Blue. Compounds were freshly added to the explants at each media change. The explants were cultured in serum-free conditions. Supernatants retrieved from the culture were analyzed by biomarkers (P2NP, C2M, AGNx1, AGNx2) at day 7, 14 and 21.

CCc1nc2c(C)nc(C)cc2n1-c1ccc(CCNC(=O)NS(=O)(=O)c2ccc(C)cc2)cc1 [Compound A, 3-[2-(4-{2-ethyl-4,6-dimethyl-1H-imidazo[4,5-c]pyridin-1-yl}phenyl)ethyl]-1-[(4-methylbenzene)sulfonyl]urea]
inhibition of cartilage destruction: dose-dependent inhibition of cartilage destruction

C[C@H](NC(=O)c1cc(Cl)cnc1Oc1cccc(F)c1)c1ccc(C(=O)O)cc1 [Compound B, 4-[(1S)-1-({[5-chloro-2-(3-fluorophenoxy)pyridin-3-yl]carbonyl}amino)ethyl]benzoic acid]
inhibition of cartilage destruction: dose-dependent inhibition of cartilage destruction

From patent US10391086B2, “Use of EP4 receptor antagonists in the treatment of cartilage disease” (AskAt Inc., priority 2013, dated 2019)
